Measurements: ChEMBL document CHEMBL5390277, “Development of N-Terminally Modified Variants of the CXCR4-Antagonistic Peptide EPI-X4 for Enhanced Plasma Stability” (J Med Chem, 2023)
pIC50: −log10 of the molar value. Square brackets hold non-standard residues; d marks the D form. Peptide text beside a SMILES is read from it.

Columns and labels:
[1] = target: T1, C-X-C chemokine receptor type 4 (Homo sapiens, UniProt P61073); test: Displacement of 12G5 antibody from CXCR4 in human SUP-T1 cells in presence of human plasma media incubated for 2 hrs by flow cytometry based competitive analysis; format: cell-based
T1 sequence (P61073 whole entry): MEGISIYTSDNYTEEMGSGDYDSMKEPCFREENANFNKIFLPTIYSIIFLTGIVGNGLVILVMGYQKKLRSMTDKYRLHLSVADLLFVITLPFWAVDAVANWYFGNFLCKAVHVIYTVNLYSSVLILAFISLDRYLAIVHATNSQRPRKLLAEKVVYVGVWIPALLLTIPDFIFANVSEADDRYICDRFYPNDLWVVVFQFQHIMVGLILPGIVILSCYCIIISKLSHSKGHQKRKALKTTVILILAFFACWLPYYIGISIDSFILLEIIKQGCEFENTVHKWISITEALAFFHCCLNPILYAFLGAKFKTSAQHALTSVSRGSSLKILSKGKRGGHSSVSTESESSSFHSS

[2] = target: T1, C-X-C chemokine receptor type 4; test: Displacement of 12G5 antibody from CXCR4 in human SUP-T1 cells in presence of human plasma media incubated for 8 hrs by flow cytometry based competitive analysis; format: cell-based
[3] = target: T1, C-X-C chemokine receptor type 4; test: Displacement of 12G5 antibody from CXCR4 in human SUP-T1 cells as fold increase in apparent IC50 in presence of human plasma media by flow cytometry based competitive analysis; format: cell-based; conditions: filed as antagonist
[4] = target: T1, C-X-C chemokine receptor type 4; test: Displacement of 12G5 antibody from CXCR4 in human SUP-T1 cells assessed as stability of the compound by measuring remaining activity in presence of human plasma media at 20 uM by flow cytometry based competitive analysis relative to control; format: cell-based
[5] = Stability in C57BL/6 mouse plasma assessed as compound remaining at 3.5 mg/kg,iv administration and measured after 30 mins in presence of fluorescent labeled CXCR4 antibody and CXCR4 expressing human SUP-T1 cells by antibody-competition based flow cytometry assay; format: ADME, organism-based; conditions: in vivo, 0.5 h
[6] = target: T1, C-X-C chemokine receptor type 4; test: Displacement of 12G5 mAb from CXCR4 in human SUP-T1 cells incubated for 2 hrs by flow cytometry analysis; format: cell-based
[7] = tested on: Human immunodeficiency virus 1; test: Antiviral activity against HIV-1 NL4-3 infected in human TZM-bl cells assessed as inhibition of viral replication preincubated for 15 mins followed by viral infection and measured after 4320 mins by beta-gal screening assay; format: functional, organism-based; conditions: Human immunodeficiency virus 1, NL4-3, TZM
[8] = target: T1, C-X-C chemokine receptor type 4; test: Antagonist activity at CXCR4 in human SUP-T1 cells assessed as inhibition of CXCL12-induced ERK phosphorylation preincubated with 15 mins followed by CXCL12 stimulation and measured after 12 mins by flow cytometry analysis; format: functional, cell-based
[9] = Stability in human plasma assessed as half life measured upto 120 mins by mass spectrometry method; format: ADME, cell-free
[10] = target: T1, C-X-C chemokine receptor type 4; test: Antagonist activity at CXCR4 (unknown origin) expressed in human HEK293T cells co-expressing SmBiT-beta-arrestin2 preincubated with compound for 10 mins followed by CXCL12 stimulation and measured for 120 mins by beta-arrestin2 recruitment based NanoBiT assay; format: functional, cell-based
SUP-T1 = test: Inhibition of cell migration in human SUP-T1 cells assessed as inhibition of CXCL12 mediated cell migration incubated for 4 hrs in presence of chemoattractant, CXCL12 by Transwell based CellTiter-Glo-chemotaxis assay; format: functional
[11] = target: T1, C-X-C chemokine receptor type 4; test: Displacement of 12G5 antibody from CXCR4 in human SUP-T1 cells as fold increase in apparent IC50 in presence of human plasma media incubated for 8 hrs by flow cytometry based competitive analysis; format: cell-based; conditions: filed as antagonist
[12] = Toxicity in Zebrafish embryo incubated for 24 hrs by microscopic analysis; parameters: species or system Danio rerio; conditions: in vivo

## CC[C@H](C)[C@H](N)C(=O)N[C@@H](CC(C)C)C(=O)N[C@@H](CCCNC(=N)N)C(=O)N[C@@H](Cc1c[nH]c2ccccc12)C(=O)N[C@@H](CO)C(=O)N[C@@H](CCCNC(=N)N)C(=O)N[C@@H](CCCCN)C(=O)N[C@@H](CC(C)C)C(=O)N1CCC[C@H]1C(=O)N[C@@H](CS)C(=O)N[C@H](C(=O)N[C@@H](CO)C(=O)O)C(C)C
[1]
  pIC50: 6.32
[2]
  pIC50: 5.80
[3]
  fold change (FC): 1
[4]
  Activity: 100%
[5]
  Stability: Unstable

## CC[C@H](C)[C@H](N)C(=O)N[C@H](C(=O)N[C@@H](CCCNC(=N)N)C(=O)N[C@@H](Cc1c[nH]c2ccccc12)C(=O)N[C@@H](CO)C(=O)N[C@@H](CCCCN)C(=O)N[C@@H](CCCCN)C(=O)N[C@H](C(=O)N1CCC[C@H]1C(=O)N[C@@H](CS)C(=O)N[C@H](C(=O)N[C@@H](CO)C(=O)O)C(C)C)C(C)C)C(C)C (H-IVRWSKKVPCVS-OH)
[6]
  pIC50: 6.46
[7]
  pIC50: 6.25
[8]
  pIC50: 5.09
[9]
  half-life: 5.2 min

## CC[C@@H](C)[C@@H](N)C(=O)N[C@@H](CC(C)C)C(=O)N[C@@H](CCCNC(=N)N)C(=O)N[C@@H](Cc1c[nH]c2ccccc12)C(=O)N[C@@H](CO)C(=O)N[C@@H](CCCNC(=N)N)C(=O)N[C@@H](CCCCN)C(N)=O (H-[dI]LRWSRK-NH2)
[6]
  pIC50: 6.58
[7]
  pIC50: 5.70
[8]
  pIC50: 5.17
[10]
  pIC50: 7.04
SUP-T1
  inhibition: Dose-Dependent Effect
[3]
  fold change (FC): 1
[11]
  fold change (FC): 1.1
[4]
  Activity: 100%
[5]
  Stability: Stable
[12]
  Activity: Non-Toxic
